{"source": "PubChem BioAssay (NCI)", "assay_in_all_cases": "growth of human tumour cells (NCI), 48 h", "key": {"HOP-92 NSCLC": {"system": "HOP-92 NSCLC"}, "A498 renal": {"system": "A498 renal"}, "HT29 colon": {"system": "HT29 colon"}, "TK-10 renal": {"system": "TK-10 renal"}, "HOP-62 NSCLC": {"system": "HOP-62 NSCLC"}, "MDA-MB-435": {"system": "MDA-MB-435"}, "MDA-MB-231 breast": {"system": "MDA-MB-231 breast"}, "UO-31 renal": {"system": "UO-31 renal"}, "NCI-H23 lung": {"system": "NCI-H23 lung"}, "SNB-75 CNS": {"system": "SNB-75 CNS"}, "NCI-H522 lung": {"system": "NCI-H522 lung"}, "NCI-H460 lung": {"system": "NCI-H460 lung"}, "LOX IMVI melanoma": {"system": "LOX IMVI melanoma"}, "SK-MEL-5 melanoma": {"system": "SK-MEL-5 melanoma"}, "COLO 205 colon": {"system": "COLO 205 colon"}, "SF-295 CNS": {"system": "SF-295 CNS"}, "SF-539 CNS": {"system": "SF-539 CNS"}, "PC-3 prostate": {"system": "PC-3 prostate"}, "MOLT-4 leukemia": {"system": "MOLT-4 leukemia"}, "OVCAR-5 ovarian": {"system": "OVCAR-5 ovarian"}, "HL-60(TB) leukemia": {"system": "HL-60(TB) leukemia"}, "SN12C renal": {"system": "SN12C renal"}, "K-562 leukemia": {"system": "K-562 leukemia"}, "IGROV1 ovarian": {"system": "IGROV1 ovarian"}, "DU-145 prostate": {"system": "DU-145 prostate"}, "SK-MEL-2 melanoma": {"system": "SK-MEL-2 melanoma"}}, "note": "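Each compound was tested at five concentrations against cells in 96-well plates for 48 hours. GI50 marks 50% less growth. TGI is the concentration that stops growth completely.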"}
{"smiles": "CN1CCN(Cc2ccc(NC(=O)c3cncc(C#Cc4cnc5ccc(N6CCSCC6)nn45)c3)cc2C(F)(F)F)CC1", "values": [{"measurement": "GI50", "setting": "HOP-92 NSCLC", "value": 41.8, "unit": "nM"}, {"measurement": "TGI", "setting": "HOP-92 NSCLC", "value": 240, "unit": "nM"}, {"measurement": "GI50", "setting": "A498 renal", "value": 307, "unit": "nM"}, {"measurement": "TGI", "setting": "A498 renal", "value": 537, "unit": "nM"}, {"measurement": "GI50", "setting": "HT29 colon", "value": 74.4, "unit": "nM"}, {"measurement": "TGI", "setting": "HT29 colon", "value": 554, "unit": "nM"}, {"measurement": "GI50", "setting": "TK-10 renal", "value": 319, "unit": "nM"}, {"measurement": "TGI", "setting": "TK-10 renal", "value": 1080, "unit": "nM"}, {"measurement": "GI50", "setting": "HOP-62 NSCLC", "value": 338, "unit": "nM"}, {"measurement": "TGI", "setting": "HOP-62 NSCLC", "value": 1450, "unit": "nM"}, {"measurement": "GI50", "setting": "MDA-MB-435", "value": 197, "unit": "nM"}, {"measurement": "TGI", "setting": "MDA-MB-435", "value": 1480, "unit": "nM"}, {"measurement": "GI50", "setting": "MDA-MB-231 breast", "value": 74.2, "unit": "nM"}, {"measurement": "TGI", "setting": "MDA-MB-231 breast", "value": 572, "unit": "nM"}, {"measurement": "GI50", "setting": "UO-31 renal", "value": 280, "unit": "nM"}, {"measurement": "TGI", "setting": "UO-31 renal", "value": 855, "unit": "nM"}, {"measurement": "GI50", "setting": "NCI-H23 lung", "value": 156, "unit": "nM"}, {"measurement": "TGI", "setting": "NCI-H23 lung", "value": 595, "unit": "nM"}, {"measurement": "GI50", "setting": "SNB-75 CNS", "value": 256, "unit": "nM"}, {"measurement": "TGI", "setting": "SNB-75 CNS", "value": 832, "unit": "nM"}, {"measurement": "GI50", "setting": "NCI-H522 lung", "value": 132, "unit": "nM"}, {"measurement": "TGI", "setting": "NCI-H522 lung", "value": 340, "unit": "nM"}, {"measurement": "GI50", "setting": "NCI-H460 lung", "value": 208, "unit": "nM"}, {"measurement": "TGI", "setting": "NCI-H460 lung", "value": 532, "unit": "nM"}, {"measurement": "GI50", "setting": "LOX IMVI melanoma", "value": 152, "unit": "nM"}, {"measurement": "TGI", "setting": "LOX IMVI melanoma", "value": 535, "unit": "nM"}, {"measurement": "GI50", "setting": "SK-MEL-5 melanoma", "value": 786, "unit": "nM"}, {"measurement": "TGI", "setting": "SK-MEL-5 melanoma", "value": 2080, "unit": "nM"}, {"measurement": "GI50", "setting": "COLO 205 colon", "value": 153, "unit": "nM"}, {"measurement": "TGI", "setting": "COLO 205 colon", "value": 429, "unit": "nM"}, {"measurement": "GI50", "setting": "SF-295 CNS", "value": 310, "unit": "nM"}, {"measurement": "TGI", "setting": "SF-295 CNS", "value": 1600, "unit": "nM"}, {"measurement": "GI50", "setting": "SF-539 CNS", "value": 93.6, "unit": "nM"}, {"measurement": "TGI", "setting": "SF-539 CNS", "value": 275, "unit": "nM"}, {"measurement": "GI50", "setting": "PC-3 prostate", "value": 327, "unit": "nM"}, {"measurement": "TGI", "setting": "PC-3 prostate", "value": 1990, "unit": "nM"}, {"measurement": "GI50", "setting": "MOLT-4 leukemia", "value": 198, "unit": "nM"}, {"measurement": "TGI", "setting": "MOLT-4 leukemia", "value": 666, "unit": "nM"}, {"measurement": "GI50", "setting": "OVCAR-5 ovarian", "value": 282, "unit": "nM"}, {"measurement": "TGI", "setting": "OVCAR-5 ovarian", "value": 1320, "unit": "nM"}, {"measurement": "GI50", "setting": "HL-60(TB) leukemia", "value": 78.2, "unit": "nM"}, {"measurement": "TGI", "setting": "HL-60(TB) leukemia", "value": 520, "unit": "nM"}, {"measurement": "GI50", "setting": "SN12C renal", "value": 112, "unit": "nM"}, {"measurement": "TGI", "setting": "SN12C renal", "value": 702, "unit": "nM"}, {"measurement": "TGI", "setting": "K-562 leukemia", "value": 753, "unit": "nM"}, {"measurement": "GI50", "setting": "IGROV1 ovarian", "value": 168, "unit": "nM"}, {"measurement": "TGI", "setting": "IGROV1 ovarian", "value": 806, "unit": "nM"}, {"measurement": "GI50", "setting": "DU-145 prostate", "value": 202, "unit": "nM"}, {"measurement": "TGI", "setting": "DU-145 prostate", "value": 600, "unit": "nM"}, {"measurement": "GI50", "setting": "SK-MEL-2 melanoma", "value": 260, "unit": "nM"}, {"measurement": "TGI", "setting": "SK-MEL-2 melanoma", "value": 745, "unit": "nM"}]}
